Tested on: MDA-MB-468 spheroids with HUVEC/MSC, viability
Assay: Anticancer human tumor MDA-MB-468 cell line growth inhibition [PI3K];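 further: spheroids exposed to agents for seven days before readout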;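 on viability, T/C: 100% = DMSO vehicle control viability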
Details: for IC50: curve of first compound; for viability, T/C: stronger effect = lower value
Outline: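 Stroma-containing spheroids: tumor line, pooled-donor HUVEC, hMSC. Treatments: targeted agents with PI3K inhibitors. Dosing: clinically relevant, half-log spacing, 10 microM ceiling without known Cmax. Read-out: cell viability.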

[1] = second compound 0.0316 µM, first compound 0.0316 µM
[2] = second compound 0.0316 µM, first compound 0.1 µM
[3] = second compound 0.0316 µM, first compound 0.316 µM
[4] = second compound 0.0316 µM, first compound 1 µM
[5] = second compound 0.0316 µM, first compound 3.16 µM
[6] = second compound 0.0316 µM, first compound 10 µM
[7] = second compound 0.1 µM, first compound 0.0316 µM
[8] = second compound 0.1 µM, first compound 0.1 µM
[9] = second compound 0.1 µM, first compound 0.316 µM
[10] = second compound 0.1 µM, first compound 1 µM
[11] = second compound 0.1 µM, first compound 3.16 µM
[12] = second compound 0.1 µM, first compound 10 µM
[13] = second compound 0.316 µM, first compound 0.0316 µM
[14] = second compound 0.316 µM, first compound 0.1 µM
[15] = second compound 0.316 µM, first compound 0.316 µM
[16] = second compound 0.316 µM, first compound 1 µM
[17] = second compound 0.316 µM, first compound 3.16 µM
[18] = second compound 0.316 µM, first compound 10 µM
[19] = second compound 1 µM, first compound 0.0316 µM
[20] = second compound 1 µM, first compound 0.1 µM
[21] = second compound 1 µM, first compound 0.316 µM
[22] = second compound 1 µM, first compound 1 µM
[23] = second compound 1 µM, first compound 3.16 µM
[24] = second compound 1 µM, first compound 10 µM
[25] = second compound 3.16 µM, first compound 0.0316 µM
[26] = second compound 3.16 µM, first compound 0.1 µM
[27] = second compound 3.16 µM, first compound 0.316 µM
[28] = second compound 3.16 µM, first compound 1 µM
[29] = second compound 3.16 µM, first compound 3.16 µM
[30] = second compound 3.16 µM, first compound 10 µM
[31] = second compound 10 µM, first compound 0.0316 µM
[32] = second compound 10 µM, first compound 0.1 µM
[33] = second compound 10 µM, first compound 0.316 µM
[34] = second compound 10 µM, first compound 1 µM
[35] = second compound 10 µM, first compound 3.16 µM
[36] = second compound 10 µM, first compound 10 µM

Work on `C#Cc1c(F)ccc2cc(O)cc(-c3ncc4c(N5CC6CCC(C5)N6)nc(OCC56CCCN5CC(F)C6)nc4c3F)c12` (stereo not drawn) + CC(Nc1ncnc2nc[nH]c12)c1cc2cccc(Cl)c2c(=O)n1-c1ccccc1 yielded an IC50 (second compound 0.0316 µM) greater than 10 µM, an IC50 (second compound 0.1 µM) greater than 10 µM and an IC50 (second compound 0.316 µM) greater than 10 µM. It also gave an IC50 (second compound 1 µM) greater than 10 µM, an IC50 (second compound 3.16 µM) of 4.95 µM and an IC50 (second compound 10 µM) of less than 0.0316 µM. For the same compound, the viability, T/C [1] was 104%, the viability, T/C [2] was 94.7% and the viability, T/C [3] was 92.3%. The viability, T/C [4] was 92.3%, the viability, T/C [5] was 90.5% and the viability, T/C [6] was 62.8%. For the same compound, the viability, T/C [7] was 96.5%, the viability, T/C [8] was 91.2% and the viability, T/C [9] was 88.6%. For the same compound, the viability, T/C [10] was 90.4%, the viability, T/C [11] was 81.2% and the viability, T/C [12] was 57.1%. It also gave a viability, T/C [13] of 78.7%, a viability, T/C [14] of 67.7% and a viability, T/C [15] of 70.8%. It also gave a viability, T/C [16] of 83.6%, a viability, T/C [17] of 75.2% and a viability, T/C [18] of 54.5%. It also gave a viability, T/C [19] of 68%, a viability, T/C [20] of 72.8% and a viability, T/C [21] of 63.7%. The viability, T/C [22] was 70.5%, the viability, T/C [23] was 62% and the viability, T/C [24] was 52.1%. For the same compound, the viability, T/C [25] was 63.4%, the viability, T/C [26] was 57.5% and the viability, T/C [27] was 55.3%. The viability, T/C [28] was 60%, the viability, T/C [29] was 54.3% and the viability, T/C [30] was 43%. The viability, T/C [31] was 39.2%, the viability, T/C [32] was 39.8% and the viability, T/C [33] was 35.5%. It also gave a viability, T/C [34] of 40.4%, a viability, T/C [35] of 38.6% and a viability, T/C [36] of 28.2%.
Compound `C=CC(=O)N1CCN(c2nc(=O)n(-c3c(C)ccnc3C(C)C)c3nc(-c4c(O)cccc4F)c(F)cc23)C(C)C1` (stereo not drawn) + CC(Nc1ncnc2nc[nH]c12)c1cc2cccc(Cl)c2c(=O)n1-c1ccccc1 has an IC50 (second compound 0.0316 µM) greater than 10 µM, an IC50 (second compound 0.1 µM) greater than 10 µM and an IC50 (second compound 0.316 µM) greater than 10 µM. It also gave an IC50 (second compound 1 µM) greater than 10 µM, an IC50 (second compound 3.16 µM) greater than 10 µM and an IC50 (second compound 10 µM) of less than 0.0316 µM. It also gave a viability, T/C [1] of 88.1%, a viability, T/C [2] of 93% and a viability, T/C [3] of 99.4%. The viability, T/C [4] was 99.3%, the viability, T/C [5] was 86.1% and the viability, T/C [6] was 74.2%. The viability, T/C [7] was 89.3%, the viability, T/C [8] was 79.8% and the viability, T/C [9] was 83.7%. It also gave a viability, T/C [10] of 94.2%, a viability, T/C [11] of 91.1% and a viability, T/C [12] of 73.7%. It also gave a viability, T/C [13] of 70.4%, a viability, T/C [14] of 74.4% and a viability, T/C [15] of 84.3%. It also gave a viability, T/C [16] of 94.7%, a viability, T/C [17] of 76.9% and a viability, T/C [18] of 61.4%. For the same compound, the viability, T/C [19] was 70.6%, the viability, T/C [20] was 61.4% and the viability, T/C [21] was 82.2%. For the same compound, the viability, T/C [22] was 84.6%, the viability, T/C [23] was 84.4% and the viability, T/C [24] was 60.6%. The viability, T/C [25] was 54.5%, the viability, T/C [26] was 57.1% and the viability, T/C [27] was 61.4%. For the same compound, the viability, T/C [28] was 68.5%, the viability, T/C [29] was 70.6% and the viability, T/C [30] was 51%. For the same compound, the viability, T/C [31] was 41%, the viability, T/C [32] was 46.7% and the viability, T/C [33] was 47.1%. It also gave a viability, T/C [34] of 51.1%, a viability, T/C [35] of 50.1% and a viability, T/C [36] of 37.4%.
For `CC(Cn1ccc(-c2ccc(C#N)c(Cl)c2)n1)NC(=O)c1cc(C(C)O)[nH]n1` (stereo not drawn) + CC(Nc1ncnc2nc[nH]c12)c1cc2cccc(Cl)c2c(=O)n1-c1ccccc1, the IC50 (second compound 0.0316 µM) was greater than 10 µM, the IC50 (second compound 0.1 µM) was greater than 10 µM and the IC50 (second compound 0.316 µM) was greater than 10 µM. The IC50 (second compound 1 µM) was greater than 10 µM, the IC50 (second compound 3.16 µM) was greater than 10 µM and the IC50 (second compound 10 µM) was less than 0.0316 µM. For the same compound, the viability, T/C [1] was 82%, the viability, T/C [2] was 92.4% and the viability, T/C [3] was 90.2%. It also gave a viability, T/C [4] of 90.3%, a viability, T/C [5] of 88.8% and a viability, T/C [6] of 79.1%. It also gave a viability, T/C [7] of 86.8%, a viability, T/C [8] of 80.7% and a viability, T/C [9] of 76.5%. It also gave a viability, T/C [10] of 88.4%, a viability, T/C [11] of 89% and a viability, T/C [12] of 71.7%. The viability, T/C [13] was 85.7%, the viability, T/C [14] was 93.6% and the viability, T/C [15] was 72.7%. It also gave a viability, T/C [16] of 76.1%, a viability, T/C [17] of 70.7% and a viability, T/C [18] of 66.3%. It also gave a viability, T/C [19] of 55.9%, a viability, T/C [20] of 69.1% and a viability, T/C [21] of 60.2%. The viability, T/C [22] was 73.9%, the viability, T/C [23] was 66.6% and the viability, T/C [24] was 57.6%. For the same compound, the viability, T/C [25] was 60.6%, the viability, T/C [26] was 58.8% and the viability, T/C [27] was 60.8%. It also gave a viability, T/C [28] of 52.4%, a viability, T/C [29] of 56.5% and a viability, T/C [30] of 47.1%. For the same compound, the viability, T/C [31] was 45.8%, the viability, T/C [32] was 40.5% and the viability, T/C [33] was 40.7%. For the same compound, the viability, T/C [34] was 43.1%, the viability, T/C [35] was 44.5% and the viability, T/C [36] was 38.6%.
Work on `CC1(C)CCC(Nc2ncc(C(F)(F)F)c(-c3c[nH]c4c(P(C)(C)=O)c(C#N)ccc34)n2)CN1` (stereo not drawn) + CC(Nc1ncnc2nc[nH]c12)c1cc2cccc(Cl)c2c(=O)n1-c1ccccc1 yielded an IC50 (second compound 0.0316 µM) of less than 0.0316 µM, an IC50 (second compound 0.1 µM) of less than 0.0316 µM and an IC50 (second compound 0.316 µM) of less than 0.0316 µM. The IC50 (second compound 1 µM) was less than 0.0316 µM, the IC50 (second compound 3.16 µM) was less than 0.0316 µM and the IC50 (second compound 10 µM) was less than 0.0316 µM. For the same compound, the viability, T/C [1] was 11.2%, the viability, T/C [2] was 8.83% and the viability, T/C [3] was 8.44%. It also gave a viability, T/C [4] of 8.51%, a viability, T/C [5] of 9.51% and a viability, T/C [6] of 1.74%. For the same compound, the viability, T/C [7] was 12.5%, the viability, T/C [8] was 11.6% and the viability, T/C [9] was 8.64%. The viability, T/C [10] was 8.66%, the viability, T/C [11] was 8.77% and the viability, T/C [12] was 1.45%. The viability, T/C [13] was 11.2%, the viability, T/C [14] was 11% and the viability, T/C [15] was 9.67%. It also gave a viability, T/C [16] of 8.74%, a viability, T/C [17] of 9.29% and a viability, T/C [18] of 1.74%. It also gave a viability, T/C [19] of 12.8%, a viability, T/C [20] of 10.6% and a viability, T/C [21] of 9.64%. For the same compound, the viability, T/C [22] was 9.48%, the viability, T/C [23] was 9.76% and the viability, T/C [24] was 1.16%. The viability, T/C [25] was 11.8%, the viability, T/C [26] was 10.2% and the viability, T/C [27] was 11.1%. It also gave a viability, T/C [28] of 9.71%, a viability, T/C [29] of 7.09% and a viability, T/C [30] of 1.3%. It also gave a viability, T/C [31] of 12.6%, a viability, T/C [32] of 10.8% and a viability, T/C [33] of 10%. For the same compound, the viability, T/C [34] was 10%, the viability, T/C [35] was 7.06% and the viability, T/C [36] was 1.03%.

Source: PubChem BioAssay AID1963960 (Molecular Pharmacology Branch, DTP, NCI, 2024)
